According to US20090306149A1, “USE OF BIARYLCARBOXAMIES IN THE TREATMENT OF HEDGEHOG PATHWAY-RELATED DISORDERS” (priority 2006, published 2009):
Read-outs that look alike come from different tables or passages of the source.

What was measured:
Smoothened = Smoothened (Homo sapiens, UniProt Q99835); experiment: Smo binding assay, displacement of a small molecule agonist of Smoothened, filter binding format
From the text: A Smo binding assay was developed using radio-labeled smoothened agonist for compound competition.
Table 1, infra; lists the IC50 for displacement of a small molecule agonist of Smoothened determined in a filter binding format.

[1] = test system: gli-luciferase activity (Hh pathway) in TMHh12 cells; experiment: "IC50 shift" gli-luciferase reporter assay in TMHh12 cells with a small molecule Smo agonist; assay type: cell-based, mouse; details: Mus musculus, TMHh12, TMHh12 cells
Procedure: (§1) TM3 cells (mouse) transfected with a new proprietary reporter construct (pTA-8xGli-Luc). The pTA-8xGli-Luc reporter produces approx. 4 fold more luciferase activity than classical 8xGli-LUC. A highly responsive stable clone has been selected (TMHh12) with >10-fold signal/noise ratio and <10% CV in 384 well format.
“IC50 shift” assays in TMHh12 cells. IC50 for antagonism of gli-luciferase activity was tested in the presence of increasing concentrations of a small molecule agonist which binds to Smo with 1 nM affinity and activates the Hh pathway.
Table 1 lists the IC50 of antagonists determined in the presence of different (1 nM and 25 nM) concentrations of a small agonist of Smoothened.

[2] = test system: Shh-mediated pathway activation (Gli-luciferase activity of TMHh12 cells); experiment: Gli-Luc reporter assay for Hh pathway inhibition in TMHh12 cells in the presence of Shh protein; assay type: cell-based; details: Mus musculus, read-out: EC50 to block Shh-mediated pathway activation
Procedure: as §1
Gli-Luc Reporter Assay for Hh Pathway Inhibition
Gli-luciferase activity of TMHh12 cells was determined in the presence of Shh protein.

[3] = 1 nM small molecule Smo agonist, read-out: Gli_luc (1 nM Smo agonist) IC50
[4] = 25 nM small molecule Smo agonist, read-out: Gli_luc (25 nM Smo agonist) IC50

Chain of Smoothened (Q99835 28-787): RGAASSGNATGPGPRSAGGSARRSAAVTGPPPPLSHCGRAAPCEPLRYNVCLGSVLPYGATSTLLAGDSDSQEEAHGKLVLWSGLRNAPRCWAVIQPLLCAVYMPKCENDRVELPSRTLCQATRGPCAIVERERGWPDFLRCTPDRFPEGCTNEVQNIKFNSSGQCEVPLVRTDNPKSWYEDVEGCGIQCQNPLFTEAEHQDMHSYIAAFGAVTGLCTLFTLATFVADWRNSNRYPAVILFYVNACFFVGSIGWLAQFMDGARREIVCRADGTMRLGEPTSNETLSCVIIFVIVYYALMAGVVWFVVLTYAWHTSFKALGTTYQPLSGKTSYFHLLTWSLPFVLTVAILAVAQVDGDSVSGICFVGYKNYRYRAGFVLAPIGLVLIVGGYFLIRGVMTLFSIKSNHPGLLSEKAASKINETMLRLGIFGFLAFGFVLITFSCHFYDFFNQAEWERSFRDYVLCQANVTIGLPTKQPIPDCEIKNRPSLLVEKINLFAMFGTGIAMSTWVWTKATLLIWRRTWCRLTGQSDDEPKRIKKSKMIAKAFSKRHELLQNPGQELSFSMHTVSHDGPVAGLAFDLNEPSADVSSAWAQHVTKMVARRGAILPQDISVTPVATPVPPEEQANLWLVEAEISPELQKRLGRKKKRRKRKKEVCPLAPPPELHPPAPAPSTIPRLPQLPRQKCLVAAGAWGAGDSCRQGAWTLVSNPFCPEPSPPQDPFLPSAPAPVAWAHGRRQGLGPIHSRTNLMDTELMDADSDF

Structure (SMILES) | IC50 (Smoothened) | IC50 [1, 3] | IC50 [1, 4] | EC50 [2]
Cc1cccc(C(=O)Nc2ccc3c(c2)C[C@@H](NCc2ccccn2)C3)c1-c1ccc(C(F)(F)F)cc1 [Example 6, 6-Methyl-4′-trifluoromethyl-biphenyl-2-carboxylic acid {(S)-2-[(pyridin-2-ylmethyl)-amino]-indan-5-yl}-amide] | 15 nM | 19 nM | 279 nM | 9.4 nM
Cc1cccc(C(=O)Nc2ccc3c(c2)C[C@@H](NCc2cccn2C)C3)c1-c1ccc(C(F)(F)F)cc1 [Example 15] | 18 nM | < 5 nM | 479 nM | –
Cc1cccc(C(=O)Nc2ccc3c(c2)C[C@@H](NCc2ccncc2)C3)c1-c1ccc(C(F)(F)F)cc1 [Example 20] | 151 nM | 94 nM | 964 nM | –
COc1ccc(OC)c(CN[C@H]2Cc3ccc(NC(=O)c4cccc(C)c4-c4ccc(C(F)(F)F)cc4)cc3C2)c1 [Example 21] | 1 nM | 254 nM | 646 nM | –
CC(=O)Nc1ccc(CN[C@H]2Cc3ccc(NC(=O)c4cccc(C)c4-c4ccc(C(F)(F)F)cc4)cc3C2)cc1 [Example 22] | 444 nM | 456 nM | 3260 nM | –
COc1ccc(CN[C@H]2Cc3ccc(NC(=O)c4cccc(C)c4-c4ccc(C(F)(F)F)cc4)cc3C2)cc1 [Example 23] | 93 nM | 349 nM | 3040 nM | –
Cc1cccc(C(=O)Nc2ccc3c(c2)C[C@@H](NCc2ccc4c(c2)OC(F)(F)O4)C3)c1-c1ccc(C(F)(F)F)cc1 [Example 25] | 90 nM | 409 nM | 2500 nM | –
Cc1cccc(C(=O)Nc2ccc3c(c2)C[C@@H](NCc2ccc(Cl)s2)C3)c1-c1ccc(C(F)(F)F)cc1 [Example 26] | 8 nM | 35 nM | 458 nM | –
Cc1cccc(C(=O)Nc2ccc3c(c2)C[C@@H](NCc2ccc(-n4ccnc4)cc2)C3)c1-c1ccc(C(F)(F)F)cc1 [Example 28] | 2 nM | 12 nM | 481 nM | –
Cc1cccc(C(=O)Nc2ccc3c(c2)C[C@@H](NCc2cnc4ccccc4c2)C3)c1-c1ccc(C(F)(F)F)cc1 [Example 29] | 490 nM | 1670 nM | 4920 nM | –
Cc1cccc(C(=O)Nc2ccc3c(c2)C[C@@H](NCc2cccnc2Cl)C3)c1-c1ccc(C(F)(F)F)cc1 [Example 30] | 39 nM | 136 nM | 1440 nM | –
Cc1cccc(C(=O)Nc2ccc3c(c2)C[C@@H](NCc2ccc4c(c2)CCO4)C3)c1-c1ccc(C(F)(F)F)cc1 [Example 31] | 28 nM | 281 nM | 3040 nM | –
COc1ccc(CN[C@H]2Cc3ccc(NC(=O)c4cccc(C)c4-c4ccc(C(F)(F)F)cc4)cc3C2)cn1 [Example 32] | 130 nM | 261 nM | 2860 nM | –
Cc1cccc(C(=O)Nc2ccc3c(c2)C[C@@H](N(C)Cc2ccccn2)C3)c1-c1ccc(C(F)(F)F)cc1 [Example 38] | 6250 nM | 1720 nM | 13300 nM | –
Cc1cccc(C(=O)Nc2ccc3c(c2)CC(NCc2nccn2C)C3)c1-c1ccc(C(F)(F)F)cc1 (stereo not shown) [Example 40] | 445 nM | 145 nM | 1910 nM | –
Cc1cccc(C(=O)Nc2ccc3c(c2)CC(NCc2cc4ccccc4o2)C3)c1-c1ccc(C(F)(F)F)cc1 (stereo not shown) [Example 41] | 3 nM | 82 nM | 616 nM | –

Structure (SMILES) | IC50 (Smoothened) | IC50 [1, 3] | IC50 [1, 4] | EC50 [2]
Cc1cccc(C(=O)Nc2ccc3c(c2)CC(NCc2ccccn2)C3)c1-c1ccc(C(F)(F)F)cc1 (stereo not shown) [Example 45] | 141 nM | 85 nM | 1140 nM | –
COC(=O)NC(CNC1Cc2ccc(NC(=O)c3cccc(C)c3-c3ccc(C(F)(F)F)cc3)cc2C1)Cc1ccccc1 (stereo not shown) [Example 49] | 118 nM | 226 nM | 2680 nM | –
Cc1cccc(C(=O)Nc2ccc3c(c2)CC(NCC2CCCCC2)C3)c1-c1ccc(C(F)(F)F)cc1 (stereo not shown) [Example 50] | 621 nM | 901 nM | 11900 nM | –
COC(=O)N1CCC(CNC2Cc3ccc(NC(=O)c4cccc(C)c4-c4ccc(C(F)(F)F)cc4)cc3C2)CC1 (stereo not shown) [Example 51] | 13700 nM | 7000 nM | 11200 nM | –
O=C(Nc1ccc2c(c1)CC(NCCc1ccccc1)C2)c1ccccc1-c1ccc(C(F)(F)F)cc1 (stereo not shown) [Example 53] | 7910 nM | 261 nM | 1800 nM | –
Cc1ccc(-c2ccc(C(F)(F)F)cc2)c(C(=O)Nc2ccc3c(c2)CC(NCc2ccccn2)C3)c1 (stereo not shown) [Example 54] | 16700 nM | 8680 nM | 6800 nM | –
O=C(Nc1ccc2c(c1)CC(NCc1ccccc1)C2)c1ccccc1-c1ccc(C(F)(F)F)cc1 (stereo not shown) [Example 56] | 271 nM | 165 nM | 4180 nM | –
Cc1cccc(C(=O)Nc2ccc3c(c2)CC(NCc2nc4ccccc4n2C)C3)c1-c1ccc(C(F)(F)F)cc1 (stereo not shown) [Example 57] | 28 nM | 3060 nM | 17400 nM | –
CCCNC1Cc2ccc(NC(=O)c3cccc(C)c3-c3ccc(C(F)(F)F)cc3)cc2C1 (stereo not shown) [Example 58] | 4300 nM | 651 nM | 10100 nM | –
Cc1cccc(C(=O)Nc2ccc3c(c2)CC(NCc2cccn2C)C3)c1-c1ccc(C(F)(F)F)cc1 (stereo not shown) [Example 59] | 21 nM | 112 nM | 3490 nM | –
O=C(Nc1ccc2c(c1)CC(NCc1ncc[nH]1)C2)c1cccc(C(F)(F)F)c1-c1ccc(C(F)(F)F)cc1 (stereo not shown) [Example 60] | 3650 nM | 13200 nM | 23600 nM | –
Cc1cccc(C(=O)Nc2ccc3c(c2)CC(NCc2c[nH]c4ccccc24)C3)c1-c1ccc(C(F)(F)F)cc1 (stereo not shown) [Example 61] | 299 nM | 2100 nM | 11900 nM | –
Cc1cccc(C(=O)Nc2ccc3c(c2)CC(NCc2ccco2)C3)c1-c1ccc(C(F)(F)F)cc1 (stereo not shown) [Example 62] | 103 nM | 141 nM | 1630 nM | –
Cc1cccc(C(=O)Nc2ccc3c(c2)CC(NCc2ccoc2)C3)c1-c1ccc(C(F)(F)F)cc1 (stereo not shown) [Example 63] | 493 nM | 686 nM | 14000 nM | –
Cc1cccc(C(=O)Nc2ccc3c(c2)CC(NCc2ccc(-c4ccc(Cl)cc4)o2)C3)c1-c1ccc(C(F)(F)F)cc1 (stereo not shown) [Example 64] | 135 nM | 48 nM | 1310 nM | –

Now from value to compound:

IC50 (Smoothened) | IC50 [1, 3] | IC50 [1, 4] | EC50 [2] | Structure (SMILES)
593 nM | 246 nM | 10000 nM | – | Cc1cccc(C(=O)Nc2ccc3c(c2)CC(NCc2cccnc2)C3)c1-c1ccc(C(F)(F)F)cc1 (stereo not shown) [Example 66]
486 nM | 142 nM | 4190 nM | – | Cc1cccc(C(=O)Nc2ccc3c(c2)CC(NCc2ccncc2)C3)c1-c1ccc(C(F)(F)F)cc1 (stereo not shown) [Example 67]
367 nM | 138 nM | 4860 nM | – | Cc1cccc(C(=O)Nc2ccc3c(c2)CCC(NCc2ccccn2)CC3)c1-c1ccc(C(F)(F)F)cc1 (stereo not shown) [Example 68]
619 nM | 2490 nM | 12600 nM | – | Cc1cccc(C(=O)Nc2ccc3c(c2)CCC(NCc2ccccc2)CC3)c1-c1ccc(Cl)cc1 (stereo not shown) [Example 69]
11 nM | 5 nM | 235 nM | – | Cc1cccc(C(=O)Nc2ccc3c(c2)CC(NCc2ccccc2F)C3)c1-c1ccc(C(F)(F)F)cc1 (stereo not shown) [Example 71]
936 nM | 99 nM | 2240 nM | – | Cc1ccc(C(=O)Nc2ccc3c(c2)C[C@H](NCc2ccccn2)C3)c(-c2ccccc2)c1 [Example 73]
47 nM | 19 nM | 557 nM | – | Cc1cccc(C(=O)Nc2ccc3c(c2)C[C@@H](Nc2ccccc2)C3)c1-c1ccc(C(F)(F)F)cc1 [Example 74, 6-Methyl-4′-trifluoromethyl-biphenyl-2-carboxylic acid ((S)-2-phenylamino-indan-5-yl)-amide]
881 nM | 700 nM | 4480 nM | – | CCOC(=O)NC1CCc2ccc(NC(=O)c3cccc(C)c3-c3ccc(C(F)(F)F)cc3)cc2CC1 (stereo not shown) [Example 84]
60 nM | 1010 nM | 1300 nM | – | CS(=O)(=O)NC1Cc2ccc(NC(=O)c3cccc(F)c3-c3ccc(C(F)(F)F)cc3)cc2C1 (stereo not shown) [Example 92]
217 nM | 1900 nM | – | – | CCCCS(=O)(=O)NC1Cc2ccc(NC(=O)c3cccc(C)c3-c3ccc(C(F)(F)F)cc3)cc2C1 (stereo not shown) [Example 102]
3200 nM | 4780 nM | 10200 nM | – | Cc1cccc(C(=O)Nc2ccc3c(c2)CCC(NS(C)(=O)=O)CC3)c1-c1ccc(C(F)(F)F)cc1 (stereo not shown) [Example 103]
3520 nM | 3560 nM | – | – | O=C(Nc1ccc2c(c1)CCC(NS(=O)(=O)c1ccccc1F)CC2)c1ccccc1-c1ccc(C(F)(F)F)cc1 (stereo not shown) [Example 104]
338 nM | 833 nM | 20400 nM | – | Cc1cccc(C(=O)Nc2ccc3c(c2)CCC(NS(=O)(=O)c2cccs2)CC3)c1-c1ccc(C(F)(F)F)cc1 (stereo not shown) [Example 105]
330 nM | 5960 nM | – | – | Cc1cccc(C(=O)Nc2ccc3c(c2)CCC(NS(=O)(=O)c2ccccc2F)CC3)c1-c1ccc(C(F)(F)F)cc1 (stereo not shown) [Example 106]
